# Experimental data as given in patent US20050075312A1, “Antitumor inhibitors and use thereof” (priority 2003, published 2005).
# Values joined by “and” are separate entries in the source; they are usually repeats but may differ in a detail not shown here. Equal entries are not always repeated.
# Tests used:
# [1] = tested on: chick embryonic angiogenesis; assay: chorioallantoic membrane (CAM) assay; type: in vivo, chicken; settings: for Eggs showing antiangiogenesis: avascular zone exceeded 3 mm
# Experimental: The effect of acharan sulfate on the inhibition of angiogenesis was performed using the choroioallantoic membrane (CAM) assay. These assays essentially followed previously published procedures (Tanaka et al, 1986; Oikawa et al., 1990). In brief, fertilized chicken eggs were incubated in the constant humidified breeder at 37° C. On the third day of incubation, about 2 ml of egg albumin were aspirated by an 18-gauge hypodermic needle, to detach the developing CAM from the shell. One and half days later, sample-loaded thermanox coverslips (Nunc, Naperville, Ill.) were air-dried and applied to the CAM surface for testing of angiogenesis inhibition by AS. Two days later, 1 ml of 10% fat emulsion (Intralipose) was injected into the chorioallantoic membrane and the avascular zone was observed under a dissecting microscope. Inhibition of angiogenesis was assessed when the avascular zone exceeded 3 mm. In order to abolish the possibility of contaminant in AS, the depolymerized product by heparinase II as described above was also tested for the antiangiogenic activity. The concentration of AS used in this assay was selected based on the concentration of heparin that had previously been applied in the same assay (Collen et al., 2000).
# On day 4.5, CAMs were treated with different doses of AS for 2 days. The dose-response relationship for the appearance of avascular zone was determined.
# [2] = tested on: Lewis lung carcinoma cells; assay: tumor growth in Lewis lung carcinoma-bearing mice; type: in vivo, C57BL/6 mice; settings: for tumor growth inhibited (volume): vs saline
# [3] = tested on: bFGF-induced angiogenesis; assay: mouse matrigel plug assay; type: in vivo, C57BL/6J mice
# Experimental: The effect of acharan sulfate on the inhibition of angiogenesis was also evaluated in the matrigel plug assay. This assay was performed as previously described (Passaniti et al., 1992). Acharan sulfate, dissolved in water, bFGF and heparin, dissolved in 0.1% bovine serum albumen (BSA)/phosphate buffered saline (PBS) were mixed with liquid matrigel (Collaborative Biomedical Products, Bedford, Mass.) in proportions not exceeding 1% of the total volume of matrigel. A mixture of 0.5 ml matrigel with AS or vehicle was injected subcutaneously into C57BL/6J mice. After injection, the matrigel rapidly formed a plug. […] The amount of hemoglobin (Hb) inside the matrigel was measured using the Drabkin method (Drabkin and Austin, 1932) and Drabkin reagent 525 for the quantitation of blood vessel formation. The concentration of Hb was calculated based on a Hb standard measured simultaneously.
# To evaluate the effect of AS on ongoing angiogenic process in the mouse matrigel plug assay matrigel, heparin (10 units/500 μl), and bFGF (100 ng/500 μl) with or without AS were injected s.c. into C57BL/6 mice. […] We next measured the hemoglobin content inside the matrigel plugs to quantify the angiogenesis. Whereas bFGF and heparin increased Hb concentration to 11.8 g/dl and the Hb concentration inside the control was 0.3 g/dl, AS decreased the heparin and bFGF-elevated Hb quantity to about 8.6 g/dl (FIG. 3). […]
# [4] = tested on: Lewis lung carcinoma cells; assay: tumor growth in Lewis lung carcinoma-bearing mice; type: in vivo, C57BL/6 mice; settings: for tumor volume: saline 4534.4; for mean tumor weight reduction: day 21, vs saline; for tumor weight: day 21, saline 4.5±0.7
# Experimental: Male C57BL/6 mice were inoculated s.c. in the back with LLC cells (1×10^6/animal) on day 0. After tumor volume was at least 60-100 mm^3, AS was administered into the subcutaneous region near the tumor mass at two doses of 10 and 30 mg/kg for 15 days. The size of tumors in all groups was measured using a dial-caliper and the volume of tumors was determined using the formula width^2×length×0.52 (Voest et al., 1995; Cao et al., 1995). The effects of AS on tumor growth and host survival were also measured by evaluating tumor volumes, tumor weights and percentage increase in lifespan of tumor hosts, respectively (Oguchi et al., 1987; Kusumoto, 1991). For calculating the survival time, mice were inoculated i.p. with […] sarcoma 180 cells/mouse on day 0 and the treatment with two doses of AS (50 and 100 mg/kg, i.p.) were started 24 h after inoculation for nine consecutive days. The control group was treated with saline. Median survival time (MST) for each group (n=7) was observed and the antitumor activity of the test compounds were compared with that of control group by measuring the increase in lifespan.
# matrix metalloprotease = assay: antiprotease activity; type: biochemical
# [5] = tested on: calf pulmonary artery endothelial (CPAE) cells; assay: CPAE cell proliferation by MTT assay; type: cell-based; settings: for growth inhibition: 3-day treatment
# Experimental: The effect of acharan sulfate on in vitro cell proliferation was carried out using calf pulmonary artery endothelial (CPAE) cells as follows.
# CPAE cells were seeded in a 24 well plate at a cell density of 10^5 cells/well in 90% RPMI and 10% FBS. After 24 h incubation, the cells were treated with various concentrations of AS. Three days later, new media and MTT solution were added to each well. After incubation at 37° C. for 4 h, the absorbance of treated cells at 540 nm was compared to that of control cells.
# sarcoma 180 = assay: solid tumor induced by sarcoma 180 tumor cells; type: in vivo, ICR mice; settings: for tumor weight: control 7.1±0.1; for tumor weight / tumor volume: mean±S.E.M.; for tumor volume: control 8804±465.3
# Experimental: For solid tumor development, ICR mice were injected with 0.1 ml of sarcoma 180 suspensions into the right hind limbs. After 6 days of tumor transplantation, mice randomized into six groups were injected i.p. with AS (50 and 100 mg/kg) and 5-FU (25 mg/kg) once a day for 9 days. Eight days later after treatment, animals were sacrificed by cervical […], and solid tumors were removed and weighed.
# [6] = tested on: sarcoma 180 ascitic tumor; assay: survival time of mice with sarcoma 180 ascitic tumor; type: in vivo
# bFGF = bFGF (Homo sapiens, UniProt P09038); settings: in vitro (Wang et al., 1997); cited from earlier work
# Sequence of bFGF (P09038 143-288, species assumed): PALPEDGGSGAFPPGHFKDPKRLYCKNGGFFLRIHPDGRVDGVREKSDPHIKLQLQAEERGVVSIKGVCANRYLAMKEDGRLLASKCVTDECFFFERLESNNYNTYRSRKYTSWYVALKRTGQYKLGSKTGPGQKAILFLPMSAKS
# [7] = 10 mg/kg daily s.c., end of 15-day treatment
# [8] = 50 mg/kg i.p. once a day for 9 days, vs control
# [9] = 50 mg/kg i.p. once a day for 9 days
molecule,measurement,setting,value
"CC1=C(/C=C/C(C)=C/C=C/C(C)=C/C(=O)O)C(C)(C)CCC1 [Retinoic acid, all-trans-retinoic acid, reference compound]",% inhibition,[1]; 1 μg/egg,80%
same,Eggs showing antiangiogenesis,"[1]; 1 μg/egg, 25 eggs tested",20
COc1cccc2c1C(=O)c1c(O)c3c(c(O)c1C2=O)C[C@@](O)(C(=O)CO)C[C@@H]3O[C@H]1C[C@H](N)[C@H](O)[C@H](C)O1 [Doxorubicin],loss of weight of treated mice,"[2]; 10 mg/kg i.v. every five day, compared with control mice",marked
same,tumor weight reduction,"[2]; 10 mg/kg i.v. every five day, day 21, vs saline",68.0%
same,tumor weight,"[2]; 10 mg/kg i.v. every five day, day 21, saline 4.5±0.7",1.6 ± 0.2 g
same,injection area,"[2]; 10 mg/kg i.v. every five day, over the treatment",significantly damaged
same,tumor growth inhibited (volume),[2]; 10 mg/kg i.v. every five day,62.0%
same,tumor volume,"[2]; 10 mg/kg i.v. every five day, saline 4534.4",1721.6 mm^3
Acharan sulfate [AS],vessel induction in matrigel,[3]; fifty micrograms of AS in combination with bFGF and heparin,slightly prevented the vessel induction
same,Hb concentration inside the matrigel plug,"[3]; fifty micrograms of AS with bFGF and heparin, s.c., seven days, bFGF and heparin alone 11.8, control 0.3",about 8.6 g/dl
same,tumor growth inhibited (volume),[2]; [7],32.8%
same,tumor volume,[4]; [7],3049.2 mm^3
same,mean tumor weight reduction,[4]; 10 mg/kg s.c.,37.8%
same,tumor weight,[4]; 10 mg/kg s.c.,2.8 ± 0.2 g
same,tumor growth inhibited (volume),"[4]; 30 mg/kg daily s.c., end of 15-day treatment, vs saline",38.1%
same,tumor volume,"[4]; 30 mg/kg daily s.c., end of 15-day treatment",2809.3 mm^3
same,mean tumor weight reduction,[4]; 30 mg/kg s.c.,48.9%
same,tumor weight,[4]; 30 mg/kg s.c.,2.3 ± 0.2 g
same,body weight of mice over the course of treatment,"[4]; 10 and 30 mg/kg s.c., 15 days",did not lose weight
same,antiprotease activity,matrix metalloprotease,no detectable antiprotease activity
same,growth inhibition,[5]; 1 μg/ml,15.2%
same,growth inhibition,[5]; 10 μg/ml,24.9%
same,cytotoxic effect on CPAE cell viability,"[5]; increasing concentrations, data not shown",no cytotoxic effect
same,tumor volume inhibited,sarcoma 180; [8],45.0%
same,tumor weight inhibited,sarcoma 180; [8],39.6%
same,tumor weight,sarcoma 180; [9],4.3 ± 0.1 g
same,tumor volume,sarcoma 180; [9],4799±345.2 mm^3
same,% inhibition,[1]; 5 μg/egg,48.3%
same,Eggs showing antiangiogenesis,"[1]; 5 μg/egg, 29 eggs tested",14
same,% inhibition,[1]; 10 μg/egg,55.6%
same,Eggs showing antiangiogenesis,"[1]; 10 μg/egg, 27 eggs tested",15
same,lifespan increased against the control group,[6]; 30 mg/kg/day for 9 consecutive days,1.5 fold
same,median survival time,"[6]; 30 mg/kg/day for 9 consecutive days, control 22.4±2.2",34.3 ± 2.6 days
same,lifespan prolonged against the control group,[6]; 50 mg/kg/day for 9 consecutive days,1.8 fold
same,median survival time,"[6]; 50 mg/kg/day for 9 consecutive days, control 22.4±2.2",40.6 ± 3.1 days
same,effect on heparin's bFGF mitogenicity,bFGF,interfered with heparin's bFGF mitogenicity in vitro
"O=c1[nH]cc(F)c(=O)[nH]1 [5-FU, 5-fluorouracil]",tumor weight inhibited,"sarcoma 180; 25 mg/kg i.p. once a day for 9 days, vs control",75.1% and 55.8%
same,tumor weight,sarcoma 180; 25 mg/kg i.p. once a day for 9 days,1.8 ± 0.3 g and 3.1 ± 0.3 g
same,tumor volume decreased,"sarcoma 180; 5-FU 25 mg/kg i.p. once a day for 9 days, vs control",82.1%
same,tumor volume,sarcoma 180; 5-FU 25 mg/kg i.p. once a day for 9 days,1572±201.5 mm^3
same,median survival time (MST),"[6]; 25 mg/kg, control 22.4±2.2",42.8 ± 4.2 days
